Like-named read-outs stand apart in the source and are kept apart here.
Tests used:
SUM52 cells = test: Oxic and anoxic anti-proliferative activity of the prodrugs; conditions: for Hypoxic Cytotoxicity Ratio (HCR), SUM52: ratio of oxic and anoxic IC50
[1] = system: FGFR1 in H520 cells (phospho-ERK1/2); test: Drug washout Western blot assay, H520 cells; type: cell-based; conditions: H520; 30 min exposure, 100 nM, with and without washout
FGFR1 = biological target: T1, FGFR1 (Homo sapiens, UniProt P11362); test: Isolated enzyme FRET-based Z-Lyte kinase inhibition assay; type: biochemical; conditions: means from 3 independent experiments; read-out: Isolate Enzyme Inhibition IC50, FGFR1
T1 construct: purchased Invitrogen
Protocol: (§1) FGFR1-4 and the Z-Lyte Kinase Assay Kit were purchased from Invitrogen. The concentration gradients from 5.1×10^−11 to 1.0×10^−6 mol/L were used for all the test compounds. The experiments were performed according to the instructions of the manufacturer.
(§2) FGFR1-4 isolated enzyme activity was determined using the FRET-based Z-Lyte kinase inhibition assay. The data are the means from 3 independent experiments.

FGFR2 = biological target: T2, FGFR2 (Homo sapiens, UniProt P21802); test: as above; type: biochemical; conditions: means from 3 independent experiments; read-out: Isolate Enzyme Inhibition IC50, FGFR2
T2 construct: purchased Invitrogen
Protocol: as §1, §2

FGFR3 = biological target: T3, FGFR3 (Homo sapiens, UniProt P22607); test: as above; type: biochemical; conditions: means from 3 independent experiments; read-out: Isolate Enzyme Inhibition IC50, FGFR3
T3 construct: purchased Invitrogen
Protocol: as §1, §2

[2] = system: FGFR3 in SW780 cells (phospho-ERK1/2); test: Drug washout Western blot assay, SW780 cells; type: cell-based; conditions: SW780; 30 min exposure, 100 nM, with and without washout
[3] = read-out: Cellular Anti-proliferative IC50, SUM52, Anoxic, 4 hours of anoxia, remainder of assay oxic
[4] = read-out: Cellular Anti-proliferative IC50, SUM52, Oxic, oxic conditions

T3 sequence (P22607 23-806): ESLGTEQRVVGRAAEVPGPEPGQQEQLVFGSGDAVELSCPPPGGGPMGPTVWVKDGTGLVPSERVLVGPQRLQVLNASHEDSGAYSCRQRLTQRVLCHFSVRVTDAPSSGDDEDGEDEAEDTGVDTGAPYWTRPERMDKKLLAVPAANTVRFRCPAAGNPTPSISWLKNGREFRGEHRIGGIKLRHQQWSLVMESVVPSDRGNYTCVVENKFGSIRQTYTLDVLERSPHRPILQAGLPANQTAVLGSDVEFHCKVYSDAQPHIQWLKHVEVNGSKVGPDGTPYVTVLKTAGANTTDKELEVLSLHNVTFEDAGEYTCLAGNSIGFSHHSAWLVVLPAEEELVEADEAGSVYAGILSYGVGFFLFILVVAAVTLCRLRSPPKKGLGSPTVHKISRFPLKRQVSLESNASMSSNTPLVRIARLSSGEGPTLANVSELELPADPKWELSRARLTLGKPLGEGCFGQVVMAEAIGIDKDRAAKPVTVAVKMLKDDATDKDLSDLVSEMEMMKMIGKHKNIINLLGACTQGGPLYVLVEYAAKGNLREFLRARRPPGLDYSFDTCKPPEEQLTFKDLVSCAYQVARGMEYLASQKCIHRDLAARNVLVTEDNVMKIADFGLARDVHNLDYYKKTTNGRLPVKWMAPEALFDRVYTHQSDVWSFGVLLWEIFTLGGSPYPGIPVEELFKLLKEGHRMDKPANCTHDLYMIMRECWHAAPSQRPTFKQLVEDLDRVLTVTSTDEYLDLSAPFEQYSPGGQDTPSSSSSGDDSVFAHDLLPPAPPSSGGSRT
T2 sequence (P21802 22-821): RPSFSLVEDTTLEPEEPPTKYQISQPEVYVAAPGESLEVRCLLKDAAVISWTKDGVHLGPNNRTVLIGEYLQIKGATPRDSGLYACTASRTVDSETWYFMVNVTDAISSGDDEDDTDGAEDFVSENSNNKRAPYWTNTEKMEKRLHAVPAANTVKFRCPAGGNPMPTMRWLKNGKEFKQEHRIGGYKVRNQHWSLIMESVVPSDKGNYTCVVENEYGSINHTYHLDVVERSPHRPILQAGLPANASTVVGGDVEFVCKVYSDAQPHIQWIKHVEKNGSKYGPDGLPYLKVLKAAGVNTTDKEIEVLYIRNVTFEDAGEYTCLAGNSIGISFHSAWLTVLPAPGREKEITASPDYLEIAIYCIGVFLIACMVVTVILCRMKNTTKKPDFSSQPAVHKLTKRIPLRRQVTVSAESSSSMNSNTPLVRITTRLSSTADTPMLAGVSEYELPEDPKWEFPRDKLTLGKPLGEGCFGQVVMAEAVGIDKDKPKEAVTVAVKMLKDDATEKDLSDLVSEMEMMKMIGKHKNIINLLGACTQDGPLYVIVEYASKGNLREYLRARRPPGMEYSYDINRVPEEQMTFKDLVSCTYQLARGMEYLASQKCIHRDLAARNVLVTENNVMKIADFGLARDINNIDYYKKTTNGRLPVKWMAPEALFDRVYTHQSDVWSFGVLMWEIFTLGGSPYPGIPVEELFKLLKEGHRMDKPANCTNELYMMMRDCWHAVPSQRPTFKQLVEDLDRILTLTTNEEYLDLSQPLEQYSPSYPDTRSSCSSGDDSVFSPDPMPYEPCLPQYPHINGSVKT
T1 sequence (P11362 22-822): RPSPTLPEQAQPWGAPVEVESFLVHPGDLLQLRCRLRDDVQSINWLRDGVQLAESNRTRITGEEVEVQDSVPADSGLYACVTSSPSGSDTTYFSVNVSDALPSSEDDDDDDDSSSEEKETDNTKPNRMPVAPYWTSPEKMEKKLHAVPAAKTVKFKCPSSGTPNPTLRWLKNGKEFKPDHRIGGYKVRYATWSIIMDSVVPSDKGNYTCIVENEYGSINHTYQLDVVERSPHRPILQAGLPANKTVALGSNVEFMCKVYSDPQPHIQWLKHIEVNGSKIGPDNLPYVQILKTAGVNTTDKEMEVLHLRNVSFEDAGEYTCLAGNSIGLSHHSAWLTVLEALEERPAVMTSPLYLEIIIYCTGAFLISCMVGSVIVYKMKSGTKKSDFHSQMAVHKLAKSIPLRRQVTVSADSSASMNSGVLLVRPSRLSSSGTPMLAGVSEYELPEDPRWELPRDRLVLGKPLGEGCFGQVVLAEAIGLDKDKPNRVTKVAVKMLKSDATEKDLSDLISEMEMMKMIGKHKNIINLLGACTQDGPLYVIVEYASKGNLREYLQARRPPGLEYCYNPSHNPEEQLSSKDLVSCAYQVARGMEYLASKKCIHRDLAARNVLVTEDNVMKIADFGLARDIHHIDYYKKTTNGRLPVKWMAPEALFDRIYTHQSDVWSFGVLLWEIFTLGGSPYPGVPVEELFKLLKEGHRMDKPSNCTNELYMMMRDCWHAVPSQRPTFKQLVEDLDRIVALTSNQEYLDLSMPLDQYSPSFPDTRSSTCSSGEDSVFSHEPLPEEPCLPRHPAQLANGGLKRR

Row | SMILES | melting point | IC50 (FGFR1) | IC50 (FGFR2) | IC50 (FGFR3) | other results
1 | COc1cc(OC)c(Br)c(-c2cc3cnc(NC(C)C)cc3n(C3CCN(C(=O)/C=C/C[N+](C)(C)Cc4c([N+](=O)[O-])ncn4C)CC3)c2=O)c1Br.[Br-] [Compound 216, (E)-4-(4-(3-(2,6-dibromo-3,5-dimethoxyphenyl)-7-(isopropylamino)-2-oxo-1,6-naphthyridin-1(2H)-yl)piperidin-1-yl)-N,N-dimethyl-N-((1-methyl-4-nitro-1H-imidazol-5-yl)methyl)-4-oxobut-2-en-1-aminium bromide] | 219 °C | – | – | – | Hypoxic Cytotoxicity Ratio (HCR), SUM52 (SUM52 cells): 59; IC50 (SUM52 cells; [3]): 6 nM; IC50 (SUM52 cells; [4]): 346 nM
2 | COc1cc(OC)c(Br)c(N2Cc3cnc(NC(C)C)nc3N(C3CCN(C(=O)/C=C/CN(C)C)CC3)C2=O)c1Br [Compound 151, (E)-3-(2,6-dibromo-3,5-dimethoxyphenyl)-1-(1-(4-(dimethylamino)but-2-enoyl)piperidin-4-yl)-7-(isopropylamino)-3,4-dihydropyrimido[4,5-d]pyrimidin-2(1H)-one] | – | 4.2 nM | 3.5 nM | 35 nM | reversible or irreversible inhibition of FGFR1 in cells [1]: reversible binding characteristics
3 | CNc1cc2c(cn1)cc(-c1c(Cl)c(OC)cc(OC)c1Cl)c(=O)n2C1CCN(C(=O)/C=C/CN(C)C)CC1 [Compound 148, (E)-3-(2,6-dichloro-3,5-dimethoxyphenyl)-1-(1-(4-(dimethylamino)but-2-enoyl)piperidin-4-yl)-7-(methylamino)-1,6-naphthyridin-2(1H)-one] | 209 to 212 °C | – | – | – | –
4 | COc1cc(OC)c(Cl)c(N2Cc3cnc(Nc4cccnc4)nc3N(C3CCN(C(=O)/C=C/CN(C)C)CC3)C2=O)c1Cl [Compound 158, (E)-3-(2,6-dichloro-3,5-dimethoxyphenyl)-1-(1-(4-(dimethylamino)but-2-enoyl)piperidin-4-yl)-7-(pyridin-3-ylamino)-3,4-dihydropyrimido[4,5-d]pyrimidin-2(1H)-one] | 207 to 209 °C | – | – | – | –
5 | COc1cc(OC)c(Cl)c(-c2cc3cnc(NC(C)C)cc3n(C3CCN(C(=O)/C=C/CN(C)C)CC3)c2=O)c1Cl [Compound 149, (E)-3-(2,6-dichloro-3,5-dimethoxyphenyl)-1-(1-(4-(dimethylamino)but-2-enoyl)piperidin-4-yl)-7-(isopropylamino)-1,6-naphthyridin-2(1H)-one] | 243 to 246 °C | – | – | – | –
6 | COc1cc(OC)c(Cl)c(-c2cc3cnc(NCC4CCOCC4)nc3n(C3CCN(C(=O)/C=C/CN(C)C)CC3)c2=O)c1Cl [Compound 137, (E)-6-(2,6-dichloro-3,5-dimethoxyphenyl)-8-(1-(4-(dimethylamino)but-2-enoyl)piperidin-4-yl)-2-(((tetrahydro-2H-pyran-4-l)methyl)amino)pyrido[2,3-d]pyrimidin-7(8H)-one] | – | 0.7 nM | 1.8 nM | 6.2 nM | reversible or irreversible inhibition of FGFR3 in cells [2]: potent reversible inhibitors
7 | COc1cc(OC)c(Cl)c(-c2cc3cnc(Nc4ccccc4)cc3n(C3CCN(C(=O)/C=C/CN(C)C)CC3)c2=O)c1Cl [Compound 232, (E)-3-(2,6-dichloro-3,5-dimethoxyphenyl)-1-(1-(4-(dimethylamino)but-2-enoyl)piperidin-4-yl)-7-(phenylamino)-1,6-naphthyridin-2(1H)-one] | 230 to 233 °C | – | – | – | –
8 | COc1cc(OC)c(Cl)c(N2Cc3cnc(Nc4ccccc4)nc3N(C3CCN(C(=O)/C=C/C[N+](C)(C)Cc4c([N+](=O)[O-])ncn4C)CC3)C2=O)c1.[Br-] [Compound 217, (E)-4-(4-(3-(2-chloro-3,5-dimethoxyphenyl)-2-oxo-7-(phenylamino)-3,4-dihydropyrimido[4,5-d]pyrimidin-1(2H)-yl)piperidin-1-yl)-N,N-dimethyl-N-((1-methyl-4-nitro-1H-imidazol-5-yl)methyl)-4-oxobut-2-en-1-aminium bromide] | 181 to 184 °C | – | – | – | Hypoxic Cytotoxicity Ratio (HCR), SUM52 (SUM52 cells): 7; IC50 (SUM52 cells; [3]): 4 nM; IC50 (SUM52 cells; [4]): 24 nM
9 | CNc1ncc2c(n1)N(C1CCN(C(=O)/C=C/CN3CCOCC3)CC1)C(=O)N(c1c(Cl)c(OC)cc(OC)c1Cl)C2 [Compound 123, (E)-3-(2,6-dichloro-3,5-dimethoxyphenyl)-7-(methylamino)-1-(1-(4-morpholinobut-2-enoyl)piperidin-4-yl)-3,4-dihydropyrimido[4,5-d]pyrimidin-2(1H)-one] | – | 0.7 nM | 2.7 nM | 8.3 nM | reversible or irreversible inhibition of FGFR3 in cells [2]: potent reversible inhibitors
10 | COc1cc(OC)c(Cl)c(N2Cc3cnc(Nc4ccc(N5CCOCC5)cc4)nc3N(C3CCN(C(=O)/C=C/C[N+](C)(C)Cc4c([N+](=O)[O-])ncn4C)CC3)C2=O)c1Cl.[Br-] [Compound 218, (E)-4-(4-(3-(2,6-dichloro-3,5-dimethoxyphenyl)-7-((4-morpholinophenyl)amino)-2-oxo-3,4-dihydropyrimido[4,5-d]pyrimidin-1(2H)-yl)piperidin-1-yl)-N,N-dimethyl-N-((1-methyl-4-nitro-1H-imidazol-5-yl)methyl)-4-oxobut-2-en-1-aminium bromide] | > 295 °C | – | – | – | Hypoxic Cytotoxicity Ratio (HCR), SUM52 (SUM52 cells): 4; IC50 (SUM52 cells; [3]): 3 nM; IC50 (SUM52 cells; [4]): 14 nM
11 | COc1cc(OC)c(Cl)c(-c2cc3cnc(NC(C)C)nc3n(C3CCN(C(=O)/C=C/CN(C)C)CC3)c2=O)c1Cl [Compound 133, (E)-6-(2,6-dichloro-3,5-dimethoxyphenyl)-8-(1-(4-(dimethylamino)but-2-enoyl)piperidin-4-yl)-2-(isopropylamino)pyrido[2,3-d]pyrimidin-7(8H)-one] | – | 1 nM | 1.5 nM | 11 nM | reversible or irreversible inhibition of FGFR1 in cells [1]: potent irreversible inhibitors; reversible or irreversible inhibition of FGFR3 in cells [2]: potent irreversible inhibitors
12 | COc1cc(OC)c(Br)c(-c2cc3cnc(NC(C)C)nc3n(C3CCN(C(=O)/C=C/CN(C)C)CC3)c2=O)c1Br [Compound 153, (E)-6-(2,6-dibromo-3,5-dimethoxyphenyl)-8-(1-(4-(dimethylamino)but-2-enoyl)piperidin-4-yl)-2-(isopropylamino)pyrido[2,3-d]pyrimidin-7(8H)-one] | – | 0.8 nM | 1 nM | 7.6 nM | reversible or irreversible inhibition of FGFR1 in cells [1]: potent irreversible inhibitors
13 | COc1cc(OC)c(Cl)c(N2Cc3cnc(Nc4ccccn4)nc3N(C3CCN(C(=O)/C=C/CN(C)C)CC3)C2=O)c1Cl [Compound 157, (E)-3-(2,6-dichloro-3,5-dimethoxyphenyl)-1-(1-(4-(dimethylamino)but-2-enoyl)piperidin-4-yl)-7-(pyridin-2-ylamino)-3,4-dihydropyrimido[4,5-d]pyrimidin-2(1H)-one] | 224 to 227 °C | – | – | – | –
14 | COc1cc(OC)c(Cl)c(N2Cc3cnc(Nc4ccncc4)nc3N(C3CCN(C(=O)/C=C/CN(C)C)CC3)C2=O)c1Cl [Compound 159, (E)-3-(2,6-dichloro-3,5-dimethoxyphenyl)-1-(1-(4-(dimethylamino)but-2-enoyl)piperidin-4-yl)-7-(pyridin-4-ylamino)-3,4-dihydropyrimido[4,5-d]pyrimidin-2(1H)-one] | > 300 °C | – | – | – | –
15 | COc1cc(OC)c(Cl)c(N2Cc3cnc(Nc4ccn(C)n4)nc3N(C3CCN(C(=O)/C=C/CN(C)C)CC3)C2=O)c1Cl [Compound 160, (E)-3-(2,6-dichloro-3,5-dimethoxyphenyl)-1-(1-(4-(dimethylamino)but-2-enoyl)piperidin-4-yl)-7-((1-methyl-1H-pyrazol-3-yl)amino)-3,4-dihydropyrimido[4,5-d]pyrimidin-2(1H)-one] | 203 °C | – | – | – | –
16 | COc1cc(OC)c(Cl)c(-c2cc3cnc(Nc4ccccc4)nc3n(C3CCN(C(=O)/C=C/CN(C)C)CC3)c2=O)c1Cl [Compound 138, (E)-6-(2,6-dichloro-3,5-dimethoxyphenyl)-8-(1-(4-(dimethylamino)but-2-enoyl)piperidin-4-yl)-2-(phenylamino)pyrido[2,3-d]pyrimidin-7(8H)-one] | – | 1.1 nM | 1.1 nM | 5.1 nM | reversible or irreversible inhibition of FGFR1 in cells [1]: potent irreversible inhibitors
17 | CNc1ncc2c(n1)N(C1CCC(NC(=O)/C=C/CN(C)C)CC1)C(=O)N(c1c(Cl)c(OC)cc(OC)c1Cl)C2 (stereo not shown) [Compound 126, (E)-N-(4-(3-(2,6-dichloro-3,5-dimethoxyphenyl)-7-(methylamino)-2-oxo-3,4-dihydropyrimido[4,5-d]pyrimidin-1(2H)-yl)cyclohexyl)-4-(dimethylamino)but-2-enamide] | – | 0.5 nM | 1.5 nM | 6.8 nM | reversible or irreversible inhibition of FGFR3 in cells [2]: potent reversible inhibitors
18 | COc1cc(OC)c(Br)c(-c2cc3cnc(NC(C)C)cc3n(C3CCN(C(=O)/C=C/CN(C)C)CC3)c2=O)c1Br [Compound 155, (E)-3-(2,6-dibromo-3,5-dimethoxyphenyl)-1-(1-(4-(dimethylamino)but-2-enoyl)piperidin-4-yl)-7-(isopropylamino)-1,6-naphthyridin-2(1H)-one] | 251 to 254 °C | – | – | – | –

— US11192890B2, “FGFR kinase inhibitors and pharmaceutical uses” (AUCKLAND UNISERVICES LIMITED, priority 2017, dated 2021)
